Key:
Type in all cases: in vivo
[1] = system: Green Peach Aphid (Myzus persicae); assay: Green peach aphid mortality on sprayed bell pepper plants; conditions: 120 h, spray on infested bell pepper plants, determined after 5 days, read-out: mortality in comparison with untreated controls
Excerpt: The active compounds were formulated in cyclohexanone as a 10,000 ppm solution supplied in tubes. The tubes were inserted into an automated electrostatic sprayer equipped with an atomizing nozzle and they served as stock solutions for which lower dilutions were made in 50% acetone:50% water (v/v). A nonionic surfactant (Kinetic®) was included in the solution at a volume of 0.01% (v/v).
Bell pepper plants at the first true-leaf stage were infested prior to treatment by placing heavily infested leaves from the main colony on top of the treatment plants. Aphids were allowed to transfer overnight to accomplish an infestation of 30-50 aphids per plant and the host leaves were removed. The infested plants were then sprayed by an automated electrostatic plant sprayer equipped with an atomizing spray nozzle. The plants were dried in the sprayer fume hood, removed, and then maintained in a growth room under fluorescent lighting in a 24-hr photoperiod at about 25° C. and about 20-40% relative humidity. Aphid mortality on the treated plants, relative to mortality on untreated control plants, was determined after 5 days.

[2] = system: Cowpea Aphid (Aphis craccivora); assay: Cowpea aphid test on sprayed potted cowpea plants; conditions: spray on cowpea plants, population reduction assessed after 24, 72 and 120 hours, read-out: mortality in comparison with untreated controls
Protocol: The active compound was dissolved at the desired concentration in a mixture of 1:1 (vol:vol) distilled water:acetone. The test solution was prepared at the day of use.
Potted cowpea plants colonized with approximately 100-150 aphids of various stages were sprayed after the pest population had been recorded. Population reduction was assessed after 24, 72, and 120 hours.

[3] = system: Silverleaf Whitefly (bemisia argentifolii); assay: Silverleaf whitefly adult mortality on sprayed cotton plants; conditions: 72 h, spray on cotton plants, whitefly adults, assessed 3 days after treatment, read-out: mortality in comparison with untreated controls
Excerpt: The active compounds were formulated in cyclohexanone as a 10,000 ppm solution supplied in tubes. The tubes were inserted into an automated electrostatic sprayer equipped with an atomizing nozzle and they serve as stock solutions for which lower dilutions are made in 50% acetone:50% water (v/v). A nonionic surfactant (Kinetic®) was included in the solution at a volume of 0.01% (v/v).
Cotton plants at the cotyledon stage (one plant per pot) were sprayed by an automated electrostatic plant sprayer equipped with an atomizing spray nozzle. The plants were dried in the sprayer fume hood and then removed from the sprayer. Each pot was placed into a plastic cup and about 10 to 12 whitefly adults (approximately 3-5 days old) were introduced. The insects were collected using an aspirator and a nontoxic Tygon® tubing connected to a barrier pipette tip. The tip, containing the collected insects, were then gently inserted into the soil containing the treated plant, allowing insects to crawl out of the tip to reach the foliage for feeding. Cups were covered with a reusable screened lid. Test plants were maintained in a growth room at about 25° C. and about 20-40% relative humidity for 3 days, avoiding direct exposure to fluorescent light (24 hour photoperiod) to prevent trapping of heat inside the cup. Mortality was assessed 3 days after treatment, compared to untreated control plants.

[4] = system: Cotton Aphid (Aphis gossypii); assay: Cotton aphid mortality on dipped cotton cotyledons; conditions: 120 h, mortality counts after 5 days, read-out: mortality in comparison with untreated controls
Excerpt: The active compounds were formulated in 50:50 (vol:vol) acetone: water and 100 ppm Kinetica™ surfactant.
Cotton plants at the cotyledon stage (one plant per pot) weare infested by placing a heavily infested leaf from the main colony on top of each cotyledon. The aphids were allowed to transfer to the host plant overnight, and the leaf used to transfer the aphids was removed. The cotyledons were dipped in the test solution and allowed to dry. After 5 days, mortality counts were made.

Measured: mortality at 500 ppm

Clc1nc(-c2cccnc2)sc1-c1ccccn1 [C.4, 4-chloro-5-(2-pyridyl)-2-(3-pyridyl)thiazole]
≥ 75%: [1] | [2] | [3]

FC(F)(F)c1nc(-c2cccnc2)sc1-c1ccn(-c2ncccn2)n1 [C.2, 2-[3-(2-Pyridin-3-yl-4-trifluoromethyl-thiazol-5-yl)-pyrazol-1-yl]-pyrimidine]
≥ 75%: [1] | [4] | [2]

From patent publication US20140249024A1, “Pesticidal Methods Using Substituted 3-pyridyl Thiazole Compounds and Derivatives for Combating Animal Pests II” (BASF SE, priority 2011, published 2014)
